“Also recorded” adds a separate entry of the source.

The test system of one data set is tumour. To be noted: cited from earlier work.
The next data set relates to EMT6 tumours. Briefly: PET imaging of EMT6 tumour-bearing mice. The format is in vivo. To be noted: 60 min. How it is done:
All animal experiments were performed by licensed investigators in accordance with the United Kingdom Home Office Guidance on the Operation of the Animal (Scientific Procedures) Act 1986 and within the published guidelines for the welfare and use of animals in cancer research.^22 EMT6 tumour cells (2×10^6; 100 μL PBS) were injected subcutaneously on the back of female BALB/c mice (aged 6-8 weeks; Charles River) and grown to ˜150 mm^3. […] Tumour dimensions were measured periodically using a caliper and tumour volumes were calculated by the equation: volume=(π/6)×a×b×c, where a, b, and c represent three orthogonal axes of the tumour. […]
[^18F]FDMP imaging scans were carried out on a GENISYS^4 small animal PET scanner (Sofie Biosciences), following a bolus i.v. injection of ˜1.85 MBq of the radiotracer into tumour-bearing mice. […] Tumour radioactivity were normalized to that of the whole body to obtain the normalized uptake value (NUV) to permit comparison of data obtained using the two scanners.
Dynamic [^18F]FDMP imaging scans were carried outa dedicated small animal PET scanner (Siemens Inveon PET module, Siemens Medical Solutions USA, Inc., Malvern, Pa., USA) following a bolus i.v. injection of ˜3.7 MBq of the radiotracer into tumour-bearing mice. […] The count densities were averaged for all VOIs at each time point to obtain a time versus radioactivity curve (TAC). […]

For data set [1], the system named is DU145 prostate adenocarcinoma tumours. Briefly: PET imaging of DU145 tumour-bearing mice. The following applies: for Tumour visibility by PET: DU145, 50-60 min static scans; for Tumour to whole body normalized uptake: 50-60 min static scans. It counts as in vivo. How it is done:
[^18F]FDMP imaging scans were carried out on a GENISYS^4 small animal PET scanner (Sofie Biosciences), following a bolus i.v. injection of ˜1.85 MBq of the radiotracer into tumour-bearing mice. Static scans were acquired for 10 min and images were reconstructed using maximum-likelihood expectation maximization. In a different cohort of mice, dynamic PET imaging was performed on a Siemens Inveon PET module, (Siemens Medical Solutions USA) as described in supplementary materials. Dynamic PET imaging was performed for the [^18F]FDMP and [^18F]FDG comparison study in EMT6 tumour-bearing mice. Static scans on the GENISYS^4 were used for all other experiments. Siemens Inveon Research Workplace software was used for visualization of radiotracer uptake in the tumour and to define the three-dimensional volumes of interest (VOI). Tumour radioactivity were normalized to that of the whole body to obtain the normalized uptake value (NUV) to permit comparison of data obtained using the two scanners.

Data set [2] concerns U87 glioma human xenografts. Briefly: Biodistribution in U87 human glioblastoma-bearing BALB/c nude mice. The format is in vivo. The following applies: for Tumour/brain ratio: U87 glioma, 60 min post injection; for Tumour uptake: U87 xenografts, 60 min post-radiotracer injection. As for the experimental part:
(§1) All animal experiments were performed by licensed investigators in accordance with the United Kingdom Home Office Guidance on the Operation of the Animal (Scientific Procedures) Act 1986 and within the published guidelines for the welfare and use of animals in cancer research.^22 EMT6 tumour cells (2×10^6; 100 μL PBS) were injected subcutaneously on the back of female BALB/c mice (aged 6-8 weeks; Charles River) and grown to ˜150 mm^3. U87 tumours were grown following subcutaneous injection of 5×10^6 cells (100 μL PBS) on the back of female BALB/c nude mice (aged 6-8 weeks; Charles River), with BT474 tumours induced following injection of 5×10^6 cells in matrigel (BD Biosciences; 1:1 ratio PBS-to-matrigel; 100 μL total). Tumour dimensions were measured periodically using a caliper and tumour volumes were calculated by the equation: volume=(π/6)×a×b×c, where a, b, and c represent three orthogonal axes of the tumour. Inflammation was performed in an aseptic inflammation model as previously described.^23
(§2) [^18F]FDMP (˜3.7 MBq) was injected via the tail vein of anaesthetized EMT6 tumour-bearing BALB/c mice. The mice were maintained under anesthesia and sacrificed by exsanguination via cardiac puncture at 2, 15, 30, 60, 120 or 180 min post radiotracer injection and tissues harvested. Biodistribution studies with BT474 and U87 tumour-bearing nude mice were performed 60 min post [^18F]FDMP injection. Tissue radioactivity was determined on a gamma counter (Cobra II Auto-Gamma counter, Packard Biosciences Co.) and decay corrected. 10 μL standards from a 1:100 dilution of the stock activity were also counted for data normalization. Plasma was obtained from terminal blood samples following centrifugation (14000 g, 5 min). Data were expressed as percent injected dose per gram of tissue (% ID/g).

Data set [3] concerns Turpentine-induced inflammatory tissue. Briefly: Aseptic inflammation model biodistribution. The following applies: for Inflammation-to-muscle ratio: in vivo; for Accumulation in chemically-induced inflammatory tissues: turpentine-treated muscle. The format is in vivo. As for the experimental part: as §1, §2
The test system of a further data set is BT474 cells. Briefly: Metabolism experiments in cells (LC-MS). The format is cell-based, human. As for the experimental part: (§3) EMT6 murine breast cancer cells (LGC Standards) were grown in Waymouth's medium (Life Technologies), with U87 human glioma cells (LGC Standards) grown in DMEM medium (Life Technologies). DU145 (kind donation from Dr. Almut Schulze, CRUK London Research Institute) and BT474 (LGC Standards) were grown in RPMI (Life Technologies). All media were supplemented with 2.5 mL penicillin/streptomycin (10,000 IU·mL^−1/10,000 […]) and 2 mM L-glutamine (Life Technologies). Waymouth's medium contained 15% fetal calf serum (FCS), with 10% FCS added to DMEM and RPMI. All cells were propagated at 37° C. in a humidified atmosphere containing 5% CO2.
BT474 cells were seeded in 12-well plates at 2×10^5 cells per well. For measurement of FDMP uptake, the media was replaced with media supplemented with 500 μM FDMP and incubated for the indicated times. All media samples were harvested at the same time and immediately diluted into ice-cold extraction solution of methanol, acetonitrile, and water (5:3:2) (All chemicals were purchased from Fisher Scientific and were LC-MS grade). Cell numbers were assumed to be identical. The amount of extraction solution added to each well was determined by cell counts obtained from a counting plate run in parallel (1 mL/2×10^6 cells). Extracts were vortexed for 10 min at 4° C. and then centrifuged at 16,500 g at 4° C. for 15 min. Supernatants were removed and analyzed by LC-MS (ZIC-pHelic HPLC columns and Exactive Plus Orbitrap MS (ThermoScientific). Data was analyzed using Xcalibur and LCQuan software (ThermoScientific). FDMP and FAC standards were run in isolation for quantification.

Data set [4] in a line: PET/CT imaging in healthy BALB/c mice. The format is in vivo.
Data set [5] can be described thus: In vivo radiotracer stability and metabolism (radio-HPLC of tissue extracts). The arrangement: species or system BALB/c non-tumour-bearing mice. As for the experimental part: Radiolabeled metabolites from plasma and tissues were quantified using an adapted method.^24 BALB/c non-tumour-bearing mice under general anesthesia (2.5% isofluorane; non-recovery anesthesia) were administered a bolus i.v. injection of [^18F]FDMP (˜7.4 MBq), and sacrificed by exsanguination via cardiac puncture 30 min post radiotracer injection. Heart, urine and liver samples were immediately snap-frozen in liquid nitrogen. Aliquots of heparinized blood were rapidly centrifuged (14000 g, 5 min, 4° C.) to obtain plasma. Plasma samples were subsequently snap-frozen in liquid nitrogen and kept on dry ice prior to analysis. For analysis, samples were thawed and kept at 4° C. immediately before use. To ice cold plasma and urine (200 μL) was added ice-cold methanol (600 μL) and the resulting suspension centrifuged (14000 g; 4° C.; 3 min). 300 μL of the resulting supernatant was added to 1 mL ice cold mobile phase. […] Samples were analyzed on an Agilent 1100 series HPLC system (Agilent Technologies, Santa Clara, Calif., USA), using an isocratic method of 10% MeOH in an ion pair buffer prepared as follows and a μBondapak C18 semi preparative HPLC column (Waters, Milford, Mass., USA; […]). […]

Data set [6] has as its system EMT6 murine breast cancer cells. Briefly: [18F]FDMP uptake in cells (gamma counting). The format is cell-based. How it is done:
as §3
EMT6 cells (2×10^5) were plated into 6-well plates overnight prior to analysis. On the day of the experiment fresh growth medium containing 0.74 MBq [^18F]FDMP were added to individual wells (1 mL/well). Cell uptake was measured over 60 min post radiotracer addition. Plates were placed on ice, washed 3 times with ice-cold PBS and lysed in RIPA buffer (Thermo Fisher Scientific Inc.; 1 mL, 10 min). Cell lysates were transferred to counting tubes and decay-corrected radioactivity was determined on a gamma counter (Cobra II Auto-Gamma counter, Packard Biosciences Co.). Aliquots were snap-frozen and used for protein determination following radioactive decay using a BCA 96-well plate assay (Thermo Fisher Scientific Inc.). In addition, 10 μL standards from a 0.74 MBq/mL stock solution were counted to quantitate % radiotracer uptake. For carnitine treatment, cells were incubated with 10 μM L-carnitine for the duration of the uptake time course.

For data set [7], the system named is orthotopic U87 brain tumour. Put plainly: PET imaging in orthotopic U87 brain tumour model. It counts as in vivo. To be noted: 15-30 min and 45-60 min post radiotracer injection. As for the experimental part:
FIG. 14. [^18F]FDMP and [^18F]FDG uptake in an orthotopic U87 brain tumour model. PET images were acquired 15-30 min and 45-60 min post radiotracer injection 6 weeks after intracranial injection of U87 glioma cells. White arrows indicate the tumour.
[^18F]FDMP and [^18F]FDG uptake in an orthotopic U87 brain tumour model was analysed (FIG. 14). […] The background is very low, so good staining is achieved.

Data set [8] relates to EMT6 murine breast adenocarcinoma xenografts. Put plainly: Biodistribution time course in EMT6 tumour-bearing BALB/c mice. The format is in vivo. As for the experimental part:
as §1, §2

The next data set concerns BT474 tumours. Briefly: Biodistribution in BT474 tumour-bearing nude mice. It counts as in vivo, BALB/c nude mice. To be noted: 60 min post injection. How it is done:
as §1, with “Inflammation was performed in an aseptic inflammation model as previously described.^23” left out
[^18F]FDMP (˜3.7 MBq) was injected via the tail vein of anaesthetized EMT6 tumour-bearing BALB/c mice. […] Tissue radioactivity was determined on a gamma counter (Cobra II Auto-Gamma counter, Packard Biosciences Co.) and decay corrected. 10 μL standards from a 1:100 dilution of the stock activity were also counted for data normalization. […] Data were expressed as percent injected dose per gram of tissue (% ID/g).

In the case of `CC([18F])C(=O)O` (centres unmarked) [[^18F]FPA, [^18F]2-fluoropropionic acid], the Tumour-to-brain ratio in the data set with tumour (60 minutes post-injection) is given as 1.27. Also, in the data set on tumour (Table 1 in reference 28), the “Tumour to blood ratio” value is 1.03.

In the case of “[^18F]2-fluoro-2-deoxyglucose [[^18F]FDG, reference compound]”, in the data set on EMT6 tumours, the “Tumour to whole body normalized uptake” value was found to be 1.02±0.16 NUV. Further, in data set [1], the “Tumour visibility by PET” value is reported as “not visible above background”. Also, the “Tumour to whole body normalized uptake” value in data set [1] (DU145 prostate tumours) is 0.47±0.09 NUV. For the same molecule, in [2], the Tumour/brain ratio came out at 1.3 and the Tumour uptake is on record as 11.0±1.1 % ID/g. Further, in data set [3], the Inflammation-to-muscle ratio was found to be 2.66 and the “Accumulation in chemically-induced inflammatory tissues” value worked out at 5.86±0.68 % ID/g.

As for `O=C(O)CF` [[^19F]FAC, [^19F]fluroacetate, reference compound], the “Intracellular metabolites observed by LC-MS” value in the data set with BT474 cells (500 μM in medium, BT474 cells) was “only the parent compound and [^19F]fluorocitrate were observed”. Further, the “Effect on intracellular metabolite pools (citrate, cis-aconitate, alpha-ketoglutarate)” value with BT474 cells (BT474 cells, LC-MS) was “significant increase in citrate and cis-aconitate, together with significant decrease in alpha-ketoglutarate”.

`CC(C)(CF)C(=O)O` [[^19F]FDMP]: in the data set with BT474 cells (500 μM in medium), the “Uptake by BT474 cells detected by mass spectrometry” value was “rapidly taken up”. Further, the “Intracellular metabolites observed by LC-MS” value in the data set on BT474 cells (500 μM in medium, BT474 cells) was “no other metabolites were observed”.

In the case of `CC(C)(C[18F])C(=O)O` [[^18F]FDMP, [^18F]3-fluoro-2,2-dimethylpropanoic acid], the “Defluorination of the tracer (retention in bones)” value in data set [4] is on record as “no defluorination”. For the same molecule, the results for the “Tumour to whole body normalized uptake” value (with EMT6 tumours; in [1] (DU145 prostate tumours)) were 1.15±0.13 NUV and 0.73±0.07 NUV, respectively. Further, the “Stability in plasma, liver and heart by radioHPLC” value in [5] (30 min post injection) is listed as “no degradation; also recorded: only peaks of the parent compound detectable”. Moreover, in data set [5] (urine, 30 min), the “Parent peak fraction in urine” value was 61.8±6.6 % radioactivity. The “Uptake into EMT6 tumour cells” value in data set [6] (30 min of incubation) is reported as 1.40±0.10 % radioactivity/mg protein; in data set [6] (60 min post radiotracer addition (plateau)), 1.47±0.04 % radioactivity/mg protein. Moreover, in [6] (incubation with 10 μM L-carnitine), the “Uptake increase compared to control cells” value amounted to 44%. In addition, the “Tumour staining in PET images” value in data set [7] is on record as “good staining of the U87 tumour was visible”. Further, in data set [8] (2, 15, 30 and 60 minutes after administration), the Bone uptake result is listed as “low bone uptake”. In data set [8] (EMT6, after 60 minutes), the “Tumour to blood ratio” value is reported as “up to 2.32”. Besides, the Tumour-associated radioactivity in data set [8] (EMT6 tumour, 30 min post injection) stood at 9.3±1.0 % ID/g; in data set [8] (EMT6 tumour, 120 min post radiotracer injection), 9.8±2.0 % ID/g; in data set [8] (EMT6 tumour, 180 min), 6.3±0.7 % ID/g. Moreover, the “Reduction of tumour-associated radioactivity” value in data set [8] (EMT6 tumour, by 180 min) stood at 36%. For the same molecule, the Tumour radioactivity is 9.1±0.5 % ID/g in [8] (EMT6 tumours, 60 min post injection) and 7.6±1.2 % ID/g in the data set on BT474 tumours. The Blood-brain barrier passage entry in [8] (gamma counting and dynamic PET) was “able to cross the blood-brain barrier; also recorded: passes the blood brain barrier”. The “Tumour visibility by PET” value in data set [1] is recorded as “clearly discernable”. In [1] (DU145 prostate tumours), the “Tumour uptake higher than [18F]FDG” value worked out at 54%. In [2], the Tumour/brain ratio was determined as 2.5. For the same molecule, the Tumour uptake in data set [2] was found to be 9.35±1.0 % ID/g. In [2] (compared with [18F]FDG), the “Uptake in the normal brain” value is “significantly lower than [^18F]FDG”. In addition, in [3], the Inflammation-to-muscle ratio amounted to 2.36. In addition, the “Accumulation in chemically-induced inflammatory tissues” value in data set [3] is 6.53±1.13 % ID/g.

Values taken from patent US10213516B2, “Labelled carboxylic acids and their uses in molecular imaging” (Imperial Innovations Limited, priority 2013, dated 2019).
